Values joined by “and” are separate entries in the source; they are usually repeats but may differ in a detail not shown here. Equal entries are not always repeated.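 Five compound concentrations were applied to cells in 96-well plates for 48 hours; endpoints were derived by simple linear interpolation of the resulting dose-response curve. At the GI50, growth is halved. TGI: concentration producing complete growth inhibition.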
Tests used:
Assay in all cases: inhibition of tumour cell growth, NCI panel, 48 h
MALME-3M melanoma = system: MALME-3M melanoma
HT29 colon = system: HT29 colon
OVCAR-8 ovarian = system: OVCAR-8 ovarian
A498 renal = system: A498 renal
RXF 393 renal = system: RXF 393 renal
SNB-19 CNS = system: SNB-19 CNS
EKVX NSCLC = system: EKVX NSCLC
NCI-H23 lung = system: NCI-H23 lung
HCC-2998 colon = system: HCC-2998 colon
SF-539 CNS = system: SF-539 CNS

## COc1ccc2c(O)c(/C=C3\N=Nc4ncccc43)oc2c1C[C@H]1CCNC[C@H]1F
MALME-3M melanoma
  GI50: 1.61 µM
  TGI: 5.15 µM
HT29 colon
  GI50: 0.411 µM
  TGI: 6.93 µM
OVCAR-8 ovarian
  GI50: 0.477 µM
  TGI: 12.3 µM
A498 renal
  GI50: 0.238 µM
  TGI: 2.91 µM
RXF 393 renal
  GI50: 0.183 µM
  TGI: 0.55 µM
SNB-19 CNS
  GI50: 0.419 µM
  TGI: 11.6 µM
EKVX NSCLC
  GI50: 0.484 µM
  TGI: 9.62 µM
NCI-H23 lung
  GI50: 0.475 µM
  TGI: 4.7 µM
HCC-2998 colon
  GI50: 2.38 µM
  TGI: 11.5 µM
SF-539 CNS
  GI50: 0.252 µM
  TGI: 0.952 µM

## CCCCNC(=O)OCC(COc1ccccc1OC)OC(=O)NCCCC (stereo not drawn)
MALME-3M melanoma
  TGI: > 100 µM
HT29 colon
  TGI: > 100 µM
OVCAR-8 ovarian
  TGI: > 100 µM
A498 renal
  TGI: > 100 µM
RXF 393 renal
  TGI: > 100 µM
SNB-19 CNS
  TGI: > 100 µM
EKVX NSCLC
  TGI: > 100 µM
NCI-H23 lung
  TGI: > 100 µM
HCC-2998 colon
  TGI: > 100 µM
SF-539 CNS
  TGI: > 100 µM

## S=c1nc[nH]c2nc[nH]c12
MALME-3M melanoma
  GI50: 5.28 µM
  TGI: > 100 µM and 298 µM and > 750 µM
HT29 colon
  GI50: 22.5 µM
  TGI: > 750 µM
OVCAR-8 ovarian
  GI50: 3.74 µM and 35.5 µM
  TGI: > 100 µM and 739 µM and > 532 µM
A498 renal
  GI50: 104 µM
  TGI: 584 µM and 187 µM
RXF 393 renal
  TGI: > 100 µM and 629 µM and > 750 µM
SNB-19 CNS
  GI50: 65.9 µM and 213 µM
  TGI: > 750 µM
EKVX NSCLC
  GI50: > 100 µM and 353 µM
  TGI: > 100 µM and 741 µM and > 750 µM
NCI-H23 lung
  GI50: 3.11 µM and 7.97 µM
  TGI: > 100 µM and 271 µM and > 750 µM
HCC-2998 colon
  GI50: 2.93 µM and 11.7 µM
  TGI: > 100 µM and 463 µM and > 750 µM
SF-539 CNS
  GI50: 3.02 µM
  TGI: > 100 µM and 587 µM and 255 µM

## Cc1cc(Cl)ccc1NC(=O)C(=O)Cc1ccc([N+](=O)[O-])c([N+](=O)[O-])c1CC(=O)C(=O)Nc1ccc(Cl)cc1C
MALME-3M melanoma
  TGI: > 100 µM
HT29 colon
  TGI: > 100 µM
OVCAR-8 ovarian
  TGI: > 100 µM
A498 renal
  TGI: > 100 µM
RXF 393 renal
  TGI: > 100 µM
SNB-19 CNS
  TGI: > 100 µM
EKVX NSCLC
  TGI: > 100 µM
NCI-H23 lung
  TGI: > 100 µM
HCC-2998 colon
  TGI: > 100 µM
SF-539 CNS
  TGI: > 100 µM

## COc1ccc2[nH]c3c(C)c4cc[n+](C)cc4c(C)c3c2c1
MALME-3M melanoma
  GI50: 0.624 µM and 2.38 µM
HT29 colon
  GI50: 2.52 µM and 1.97 µM
  TGI: 60.2 µM [middle of 4 runs]
OVCAR-8 ovarian
  GI50: 0.0892 µM and 0.134 µM
A498 renal
  TGI: 51.9 µM [middle of 4 runs]
RXF 393 renal
  GI50: 1.54 µM
  TGI: 16.5 µM [middle of 4 runs]
SNB-19 CNS
  GI50: 0.103 µM and 0.322 µM
  TGI: 1.04 µM [middle of 4 runs]
EKVX NSCLC
  GI50: 0.63 µM
NCI-H23 lung
  GI50: 0.325 µM
  TGI: 3.3 µM [middle of 4 runs]
HCC-2998 colon
  GI50: 2.41 µM and 1.02 µM
SF-539 CNS
  TGI: 1.65 µM and 1.46 µM and 1.32 µM

## C/C(=C1/N=C(c2ccccc2)OC1=O)c1ccc(C)cc1
MALME-3M melanoma
  TGI: > 100 µM
HT29 colon
  TGI: > 100 µM
OVCAR-8 ovarian
  TGI: > 100 µM
A498 renal
  TGI: > 100 µM
RXF 393 renal
  TGI: > 100 µM
SNB-19 CNS
  TGI: > 100 µM
EKVX NSCLC
  TGI: > 100 µM
NCI-H23 lung
  TGI: > 100 µM
HCC-2998 colon
  TGI: > 100 µM
SF-539 CNS
  TGI: > 100 µM

## CC(C)c1cccc(C(C)C)c1NC(=O)C(=O)CC(=O)CC(c1ccccc1)c1c(O)c2ccccc2oc1=O (stereo not drawn)
MALME-3M melanoma
  TGI: > 100 µM
HT29 colon
  TGI: > 100 µM
OVCAR-8 ovarian
  TGI: > 100 µM
A498 renal
  TGI: > 100 µM
RXF 393 renal
  TGI: > 100 µM
SNB-19 CNS
  TGI: > 100 µM
EKVX NSCLC
  TGI: > 100 µM
NCI-H23 lung
  TGI: > 100 µM
HCC-2998 colon
  TGI: > 100 µM
SF-539 CNS
  TGI: > 100 µM

## Fc1c[c-]c(-c2ccccn2)c(F)c1.[CH3-].[Pt+2].c1ccc([PH+](c2ccccc2)c2ccccn2)cc1
MALME-3M melanoma
  GI50: 1.35 µM
  TGI: 2.81 µM
HT29 colon
  GI50: 2.44 µM
  TGI: > 100 µM
OVCAR-8 ovarian
  GI50: 2.25 µM
  TGI: > 100 µM
A498 renal
  GI50: 1.48 µM
  TGI: 4.06 µM
RXF 393 renal
  GI50: 1.32 µM
  TGI: 2.76 µM
SNB-19 CNS
  GI50: 3.25 µM
  TGI: > 100 µM
EKVX NSCLC
  GI50: 1.96 µM
  TGI: 5.52 µM
NCI-H23 lung
  GI50: 1.57 µM
  TGI: 3.64 µM
HCC-2998 colon
  GI50: 1.83 µM
  TGI: 3.53 µM
SF-539 CNS
  GI50: 1.58 µM
  TGI: 3.07 µM

## CCCCCCCCCCCCOC1C(CNCC2OC3OC(C)(C)OC3C2NC(=O)Nc2ccc(C(F)(F)F)cc2)OC2OC(C)(C)OC21 (stereo not drawn)
MALME-3M melanoma
  GI50: 3.39 µM
  TGI: 13.7 µM
HT29 colon
  GI50: 3.14 µM
  TGI: 7.07 µM
OVCAR-8 ovarian
  GI50: 6.81 µM
  TGI: 18.1 µM
A498 renal
  GI50: 8.45 µM
  TGI: 15.5 µM
RXF 393 renal
  GI50: 3.37 µM
  TGI: 8.99 µM
SNB-19 CNS
  GI50: 9.07 µM
  TGI: 18 µM
EKVX NSCLC
  GI50: 7.49 µM
  TGI: 14.5 µM
NCI-H23 lung
  GI50: 8.78 µM
  TGI: 19 µM
HCC-2998 colon
  GI50: 3.05 µM
  TGI: 5.88 µM
SF-539 CNS
  GI50: 7.09 µM
  TGI: 13.9 µM

## Cc1nc2nn(Cc3ccccc3)cc2c(=O)o1
MALME-3M melanoma
  TGI: > 100 µM
HT29 colon
  TGI: > 100 µM
OVCAR-8 ovarian
  TGI: > 100 µM
A498 renal
  TGI: > 100 µM
RXF 393 renal
  TGI: > 100 µM
SNB-19 CNS
  TGI: > 100 µM
EKVX NSCLC
  TGI: > 100 µM
HCC-2998 colon
  TGI: > 100 µM
SF-539 CNS
  TGI: > 100 µM

## Fc1ccc2c(c1)SC1Oc3ccccc3-c3c1c-2nn3-c1ccccc1 (stereo not drawn)
MALME-3M melanoma
  TGI: > 100 µM
HT29 colon
  TGI: > 100 µM
OVCAR-8 ovarian
  TGI: > 100 µM
A498 renal
  TGI: > 100 µM
RXF 393 renal
  TGI: > 100 µM
EKVX NSCLC
  TGI: > 100 µM
NCI-H23 lung
  TGI: > 100 µM
HCC-2998 colon
  TGI: > 100 µM
SF-539 CNS
  TGI: > 100 µM

## Cc1ccc(/C=N/NS(=O)(=O)c2ccccc2)cc1
MALME-3M melanoma
  TGI: > 100 µM
HT29 colon
  TGI: > 100 µM
OVCAR-8 ovarian
  TGI: > 100 µM
A498 renal
  TGI: > 100 µM
RXF 393 renal
  TGI: > 100 µM
EKVX NSCLC
  TGI: > 100 µM
NCI-H23 lung
  TGI: > 100 µM
HCC-2998 colon
  TGI: > 100 µM
SF-539 CNS
  TGI: > 100 µM

## COc1ccc2c(c1)CC[C@@H]1[C@@H]2CC[C@]2(C)c3[nH]ncc3C[C@@H]12
MALME-3M melanoma
  GI50: 11.7 µM
  TGI: 27 µM
HT29 colon
  GI50: 15 µM
  TGI: > 50 µM
OVCAR-8 ovarian
  GI50: 15.6 µM
  TGI: > 50 µM
A498 renal
  GI50: 25.9 µM
  TGI: > 50 µM
RXF 393 renal
  GI50: 11.3 µM
  TGI: 28 µM
SNB-19 CNS
  GI50: 21.4 µM
  TGI: > 50 µM
EKVX NSCLC
  GI50: 16.3 µM
  TGI: > 50 µM
HCC-2998 colon
  GI50: 13.7 µM
  TGI: 35.3 µM
SF-539 CNS
  GI50: 14.8 µM
  TGI: 42 µM
